Key:
Factor X (FX) = molecular target: T1, Factor X (FX) (Homo sapiens, UniProt P00742); test: surface plasmon resonance, lipid in nanodiscs, steady state; assay type: binding; details: read-out: Kd (μM) / 40% PS 60% PC
T1 construct: gene F10; zymogen factor X, two-chain; source and preparation only in supplement; with Coagulation factor X (factor X heavy chain)
From the text: surface plasmon resonance, lipid in nanodiscs, steady state on Factor X (FX)

Prothrombin (FII) = molecular target: T2, Prothrombin (FII) (Homo sapiens, UniProt P00734); test: as above; assay type: binding; details: read-out: Kd (μM) / 40% PS 60% PC
T2 construct: gene F2; zymogen prothrombin; source and preparation only in supplement
From the text: surface plasmon resonance, lipid in nanodiscs, steady state on Prothrombin (FII)

T1 sequence (P00742 41-179): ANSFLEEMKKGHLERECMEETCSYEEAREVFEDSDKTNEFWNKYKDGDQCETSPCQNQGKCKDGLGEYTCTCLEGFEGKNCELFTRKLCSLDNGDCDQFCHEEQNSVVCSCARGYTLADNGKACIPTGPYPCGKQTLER
T1 sequence (P00742 183-488): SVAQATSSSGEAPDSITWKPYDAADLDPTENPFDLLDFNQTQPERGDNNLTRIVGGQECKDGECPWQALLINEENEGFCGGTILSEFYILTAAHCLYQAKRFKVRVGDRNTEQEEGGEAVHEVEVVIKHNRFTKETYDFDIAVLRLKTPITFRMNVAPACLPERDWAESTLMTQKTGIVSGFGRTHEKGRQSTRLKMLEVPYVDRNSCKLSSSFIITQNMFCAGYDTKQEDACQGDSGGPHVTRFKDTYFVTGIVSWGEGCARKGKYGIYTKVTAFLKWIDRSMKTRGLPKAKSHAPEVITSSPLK

CCCCCCCC/C=C\CCCCCCCC(=O)O[C@H](COC(=O)CCCCCCCCCCCCCCC)COP(=O)(O)OC[C@H](N)C(=O)O [PS 16:0/18:1(9Z)]
Kd (Factor X (FX)): 1.33 ± 0.191 µM | Kd (Prothrombin (FII)): 6.23 ± 0.921 µM

— article PMC10809103, “Phosphatidylthreonine is a procoagulant lipid detected in human blood and elevated in coronary artery disease” (Journal of lipid research, 2023)
